The experiment concerns HEK293 cells. The experiment is described as follows: Preliminary screening as mRNA vectors, EGFP mRNA transfection of HEK293 cells. Format: cell-based. Conditions: EGFP mRNA 50 ng per well, 96-well plates; percentage of GFP fluorescent cells relative to total number of cells (Hoechst). Summed up:
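HEK293 cells in DMEM plus 10% FBS transfected in 96-well format with 50 ng EGFP mRNA per well; Lipofectamine2000 served as positive control. Read-out is the percentage of GFP-fluorescent cells among total cells, counted by Hoechst nuclear stain.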

Experimental findings from patent US20230123334A1, “AMINO LIPID COMPOUND, PREPARATION METHOD THEREFOR, AND APPLICATION THEREOF” (SHENZHEN SHENXIN BIOTECHNOLOGY CO., LTD., priority 2020, published 2023) are described below.

In the case of `CCCCCCCCCCSc1nc(NCCCCCCCC)nc(NCCCN(C)C)n1` [Compound D6S10N8], the “Absolute mRNA transfection efficiency in HEK293 cells” value (from here on “Absolute mRNA transfection efficiency”) was determined as 3.7%. With `CCCCCCCCCCSc1nc(NCCCCCCCCC)nc(NCCCN(C)C)n1` [Compound D6S10N9], the “Absolute mRNA transfection efficiency” value turned out to be 8.7%. With `CCCCCCCCCCCNc1nc(NCCCN(C)C)nc(SCCCCCCCCCC)n1` [Compound D6S10N11], the “Absolute mRNA transfection efficiency” value came out at 10.0%.

In the case of `CCCCCCCCCCCCNc1nc(NCCCN(C)C)nc(SCCCCCCCCCC)n1` [Compound D6S10N12], the “Absolute mRNA transfection efficiency” value stood at 25.4%. Turning to `CCCCCCCCCCCCCNc1nc(NCCCN(C)C)nc(SCCCCCCCCCC)n1` [Compound D6S10N13], the “Absolute mRNA transfection efficiency” value is recorded as 10.2%. The same measure for `CCCCCCCCCCCCCCCNc1nc(NCCCN(C)C)nc(SCCCCCCCCCC)n1` [Compound D6S10N15]: 3.5%. In the case of `CCCCCCCCCCCCCCCCNc1nc(NCCCN(C)C)nc(SCCCCCCCCCC)n1` [Compound D6S10N16] it was 51.5%; in that of `CCCCCCCCCCCCCCCCCCNc1nc(NCCCN(C)C)nc(SCCCCCCCCCC)n1` [Compound D6S10N18], 31.8%.

Take `CCCCCCCCCCCSc1nc(NCCCCCC)nc(NCCCN(C)C)n1` [Compound D6S11N6]: the “Absolute mRNA transfection efficiency” value is given as 1.7%. The same measure for `CCCCCCCCCCCSc1nc(NCCCCCCC)nc(NCCCN(C)C)n1` [Compound D6S11N7]: 29.1%; for `CCCCCCCCCCCSc1nc(NCCCCCCCC)nc(NCCCN(C)C)n1` [Compound D6S11N8]: 16.8%. In the case of `CCCCCCCCCCCSc1nc(NCCCCCCCCC)nc(NCCCN(C)C)n1` [Compound D6S11N9] it was 45.1%; in that of `CCCCCCCCCCCNc1nc(NCCCN(C)C)nc(SCCCCCCCCCCC)n1` [Compound D6S11N11], 35.5%; in that of `CCCCCCCCCCCCNc1nc(NCCCN(C)C)nc(SCCCCCCCCCCC)n1` [Compound D6S11N12], 15.9%. With `CCCCCCCCCCCCCNc1nc(NCCCN(C)C)nc(SCCCCCCCCCCC)n1` [Compound D6S11N13], the “Absolute mRNA transfection efficiency” value came to 10.0%. In the case of `CCCCCCCCCCCCCCCNc1nc(NCCCN(C)C)nc(SCCCCCCCCCCC)n1` [Compound D6S11N15] it was 13.1%; in that of `CCCCCCCCCCCCCCCCNc1nc(NCCCN(C)C)nc(SCCCCCCCCCCC)n1` [Compound D6S11N16], 6.2%. In the case of `CCCCCCCCCCCCCCCCCCNc1nc(NCCCN(C)C)nc(SCCCCCCCCCCC)n1` [Compound D6S11N18] it was 14.6%. For `CCCCCCCCCCCCSc1nc(NCCCCCC)nc(NCCCN(C)C)n1` [Compound D6S12N6], the “Absolute mRNA transfection efficiency” value is recorded as 1.1%. In the case of `CCCCCCCCCCCCSc1nc(NCCCCCCC)nc(NCCCN(C)C)n1` [Compound D6S12N7] it was 13.0%; in that of `CCCCCCCCCCCCSc1nc(NCCCCCCCC)nc(NCCCN(C)C)n1` [Compound D6S12N8], 30.5%. The same measure for `CCCCCCCCCCCCSc1nc(NCCCCCCCCC)nc(NCCCN(C)C)n1` [Compound D6S12N9]: 24.0%. Take `CCCCCCCCCCCCSc1nc(NCCCCCCCCCCC)nc(NCCCN(C)C)n1` [Compound D6S12N11]: the “Absolute mRNA transfection efficiency” value is recorded as 14.0%. The same measure for `CCCCCCCCCCCCNc1nc(NCCCN(C)C)nc(SCCCCCCCCCCCC)n1` [Compound D6S12N12]: 10.4%. Consider `CCCCCCCCCCCCCNc1nc(NCCCN(C)C)nc(SCCCCCCCCCCCC)n1` [Compound D6S12N13], for which the “Absolute mRNA transfection efficiency” value was 5.5%. The same measure for `CCCCCCCCCCCCCCCNc1nc(NCCCN(C)C)nc(SCCCCCCCCCCCC)n1` [Compound D6S12N15]: 1.6%; for `CCCCCCCCCCCCCCCCNc1nc(NCCCN(C)C)nc(SCCCCCCCCCCCC)n1` [Compound D6S12N16]: 1.9%. Consider `CCCCCCCCCCCCCCCCCCNc1nc(NCCCN(C)C)nc(SCCCCCCCCCCCC)n1` [Compound D6S12N18], for which the “Absolute mRNA transfection efficiency” value came out at 1.7%.

For `CCCCCCCCCCCCCCSc1nc(NCCCCCC)nc(NCCCN(C)C)n1` [Compound D6S14N6], the “Absolute mRNA transfection efficiency” value is on record as 59.9%. The same measure for `CCCCCCCCCCCCCCSc1nc(NCCCCCCC)nc(NCCCN(C)C)n1` [Compound D6S14N7]: 90.8%. In the case of `CCCCCCCCCCCCCCSc1nc(NCCCCCCCC)nc(NCCCN(C)C)n1` [Compound D6S14N8] it was 80.6%; in that of `CCCCCCCCCCCCCCSc1nc(NCCCCCCCCCCC)nc(NCCCN(C)C)n1` [Compound D6S14N11], 20.1%; in that of `CCCCCCCCCCCCCCSc1nc(NCCCCCCCCCCCC)nc(NCCCN(C)C)n1` [Compound D6S14N12], 17.0%.

On to `CCCCCCCCCCCCCCSc1nc(NCCCCCCCCCCCCC)nc(NCCCN(C)C)n1` [Compound D6S14N13], for which the “Absolute mRNA transfection efficiency” value worked out at 5.2%. `CCCCCCCCCCCCCCCNc1nc(NCCCN(C)C)nc(SCCCCCCCCCCCCCC)n1` [Compound D6S14N15]: the “Absolute mRNA transfection efficiency” value amounted to 0.1%. For the compound `CCCCCCCCCCCCCCCCNc1nc(NCCCN(C)C)nc(SCCCCCCCCCCCCCC)n1` [Compound D6S14N16], the “Absolute mRNA transfection efficiency” value is given as 0.5%. The same measure for `CCCCCCCCCCCCCCCCCCNc1nc(NCCCN(C)C)nc(SCCCCCCCCCCCCCC)n1` [Compound D6S14N18]: 0.7%. On to `CCCCCCCCCCCCCCCSc1nc(NCCCCCC)nc(NCCCN(C)C)n1` [Compound D6S15N6], for which the “Absolute mRNA transfection efficiency” value was determined as 37.4%.

For `CCCCCCCCCCCCCCCSc1nc(NCCCCCCC)nc(NCCCN(C)C)n1` [Compound D6S15N7], the “Absolute mRNA transfection efficiency” value worked out at 46.1%. In the case of `CCCCCCCCCCCCCCCSc1nc(NCCCCCCCC)nc(NCCCN(C)C)n1` [Compound D6S15N8] it was 6.9%; in that of `CCCCCCCCCCCCCCCSc1nc(NCCCCCCCCC)nc(NCCCN(C)C)n1` [Compound D6S15N9], 61.9%; in that of `CCCCCCCCCCCCCCCSc1nc(NCCCCCCCCCCC)nc(NCCCN(C)C)n1` [Compound D6S15N11], 7.8%. For `CCCCCCCCCCCCCCCSc1nc(NCCCCCCCCCCCC)nc(NCCCN(C)C)n1` [Compound D6S15N12], the “Absolute mRNA transfection efficiency” value was found to be 9.6%. On to `CCCCCCCCCCCCCCCSc1nc(NCCCCCCCCCCCCC)nc(NCCCN(C)C)n1` [Compound D6S15N13], for which the “Absolute mRNA transfection efficiency” value is reported as 0.8%.

Regarding `CCCCCCCCCCCCCCCNc1nc(NCCCN(C)C)nc(SCCCCCCCCCCCCCCC)n1` [Compound D6S15N15], the “Absolute mRNA transfection efficiency” value came out at 0.8%. In the case of `CCCCCCCCCCCCCCCCNc1nc(NCCCN(C)C)nc(SCCCCCCCCCCCCCCC)n1` [Compound D6S15N16] it was 0.2%. Take `CCCCCCCCCCCCCCCCCCNc1nc(NCCCN(C)C)nc(SCCCCCCCCCCCCCCC)n1` [Compound D6S15N18]: the “Absolute mRNA transfection efficiency” value came to 1.9%. Turning to `CCCCCCCCCCCCCCCCSc1nc(NCCCCCC)nc(NCCCN(C)C)n1` [Compound D6S16N6], the “Absolute mRNA transfection efficiency” value turned out to be 96.4%. In the case of `CCCCCCCCCCCCCCCCSc1nc(NCCCCCCC)nc(NCCCN(C)C)n1` [Compound D6S16N7] it was 88.3%. The same measure for `CCCCCCCCCCCCCCCCSc1nc(NCCCCCCCC)nc(NCCCN(C)C)n1` [Compound D6S16N8]: 91.5%; for `CCCCCCCCCCCCCCCCSc1nc(NCCCCCCCCC)nc(NCCCN(C)C)n1` [Compound D6S16N9]: 76.1%. The same measure for `CCCCCCCCCCCCCCCCSc1nc(NCCCCCCCCCCC)nc(NCCCN(C)C)n1` [Compound D6S16N11]: 63.0%; for `CCCCCCCCCCCCCCCCSc1nc(NCCCCCCCCCCCC)nc(NCCCN(C)C)n1` [Compound D6S16N12]: 2.0%; for `CCCCCCCCCCCCCCCCSc1nc(NCCCCCCCCCCCCC)nc(NCCCN(C)C)n1` [Compound D6S16N13]: 0.5%. Regarding `CCCCCCCCCCCCCCCCSc1nc(NCCCCCCCCCCCCCCC)nc(NCCCN(C)C)n1` [Compound D6S16N15], the “Absolute mRNA transfection efficiency” value turned out to be 0.1%. In the case of `CCCCCCCCCCCCCCCCNc1nc(NCCCN(C)C)nc(SCCCCCCCCCCCCCCCC)n1` [Compound D6S16N16], the “Absolute mRNA transfection efficiency” value is on record as 0.1%.

For `CCCCCCCCCCCCCCCCCCNc1nc(NCCCN(C)C)nc(SCCCCCCCCCCCCCCCC)n1` [Compound D6S16N18], the “Absolute mRNA transfection efficiency” value is given as 0.0%. Regarding `CCCCCCCCCCCCCCCCCCSc1nc(NCCCCCC)nc(NCCCN(C)C)n1` [Compound D6S18N6], the “Absolute mRNA transfection efficiency” value was found to be 74.8%. Take `CCCCCCCCCCCCCCCCCCSc1nc(NCCCCCCC)nc(NCCCN(C)C)n1` [Compound D6S18N7]: the “Absolute mRNA transfection efficiency” value was determined as 87.5%. In the case of `CCCCCCCCCCCCCCCCCCSc1nc(NCCCCCCCC)nc(NCCCN(C)C)n1` [Compound D6S18N8], the “Absolute mRNA transfection efficiency” value worked out at 74.5%.

`CCCCCCCCCCCCCCCCCCSc1nc(NCCCCCCCCC)nc(NCCCN(C)C)n1` [Compound D6S18N9]: the “Absolute mRNA transfection efficiency” value worked out at 40.1%.
